Results as given in patent US5352659A, “Endothelin analogs and uses thereof” (Takeda Chemical Industries, priority 1991, dated 1994).
Bridge positions count the residues as written; N and C are the ends. Peptide text beside a SMILES is read from it.

Assays:
endothelin receptor = experiment: Assay of affinity for receptor (inhibition of 125I-ET-1 binding to porcine myocardial membrane fraction); conditions: relative to ET-1 = 100
Protocol: Assay of Affinity for Receptor
A membrane fraction prepared from the porcine heart was diluted to 0.15 mg/ml by using a buffer solution for assay, and 100 μl of the resulting suspension of the membrane fraction was poured into each assay tube to use for assay. To this suspension of the membrane fraction was added 2 μl of 5 nM ^125 I labeled endothelin-1 solution. Further, 3 μl of a test peptide solution was added thereto, followed by incubation at a temperature of 25° C. for 1 hour. Then, the resulting suspension was diluted with 900 μl of the buffer solution for assay cooled with ice, and thereafter separated into a supernatant and a precipitate by centrifugation at 12,000×g for 10 minutes. Cell membranes and an endothelin receptor embedded therein were contained in the precipitate, and radioactive iodine-labeled endothelin combined with the receptor was also recovered in the precipitate. Accordingly, the amount of radioactive iodine-labeled endothelin combined with the endothelin receptor was determined by measuring the amount of radioactive iodine contained in the precipitate with a gamma-ray counter.

[1] = test system: porcine coronary smooth muscles
Protocol: (1) Assay of Constrictor Suppressing Activity on Porcine Coronary Smooth Muscles
(§1) Spiral strips 2 mm×15 mm prepared from the coronary right ramus circumflexus from which the adventitial connective tissues and the endothelial cells were removed were set to 4 ml organ baths. The tension of each strip was detected by a force displacement transducer UL-10GR (Minebea), and recorded by a polygraph (NEC Sanei). The organ baths were maintained at 37° C., and filled with a Krebs-Henseleit solution (composition: 118 mM NaCl, 4.7 mM KCl, 2.5 mM CaCl2, 1.2 mM KH2 PO4, 25.0 mM NaHCO3, 1.2 mM MgSO4, 10.0 mM glucose) gassed with 95% O2 and 5% CO2.
(§2) A tension of 1.25 to 1.5 g was applied to each of the strips, followed by equilibration for 1.5 hours. 60 mM KCl was repeatedly applied thereto at intervals of 30 minutes until the constriction response became constant. After additional equilibration for 1.5 hours, a sample for assay was given thereto. The constriction of the strips was normalized by the constriction response of the individual strips to 60 mM KCl and statistically processed.
pA2 is a negative logarithm value of a molar concentration of a competitive antagonist necessary for shifting in parallel a dose response curve for an active drug (for example, ET-1) alone to the high dose side by a factor of 2.

porcine coronary artery = experiment: Constrictor activity on porcine coronary smooth muscles; conditions: for Maximum constriction (% 60 mM KCl): porcine coronary artery strips, normalized to 60 mM KCl response; for Constrictor activity (specific activity): relative to ET-1 = 100, porcine coronary artery
Protocol: as §1, §2
(2) As to the antagonistic property of the peptides of the present invention to endothelin, the affinity for an endothelin receptor and the constrictor activity on porcine coronary smooth muscles (according to the method described in (1) described above) were assayed. The affinity for the receptor was assayed by the following method.

SMILES: CC[C@H](C)[C@H](NC(=O)[C@H](CC(C)C)NC(=O)[C@@H](NC(=O)[C@H](CC(C)C)NC(=O)[C@H](Cc1c[nH]cn1)NC(=O)[C@@H]1CSSC[C@H](N)C(=O)N[C@@H](CO)C(=O)N[C@H]2CSSC[C@H](NC(=O)[C@H](CCC(=O)O)NC(=O)[C@H](CCCCN)NC(=O)[C@H](CC(=O)O)NC(=O)[C@H](CCSC)NC(=O)[C@H](C)NC(=O)[C@H](CO)NC(=O)[C@H](CO)NC2=O)C(=O)N[C@@H](C(C)C)C(=O)N[C@@H](Cc2ccc(O)cc2)C(=O)N[C@@H](Cc2ccccc2)C(=O)N1)[C@@H](C)O)C(=O)N[C@@H](Cc1c[nH]c2ccccc12)C(=O)O [Example 15, [Ala^6, Thr^18, Leu^19]-ET-1] (H-CSCSSAMDKECVYFCHLTLIW-OH; disulfide 1-15, 3-11)
- Receptor binding activity (specific activity) (endothelin receptor): 11
- Relative potency [1]: 6
- pA2 [1]: 6.5
- Maximum constriction (% 60 mM KCl) (porcine coronary artery): 7 % 60 mM KCl
- Constrictor activity (specific activity) (porcine coronary artery): < 0.1

SMILES: CC[C@H](C)[C@H](NC(=O)[C@H](CC(C)C)NC(=O)[C@@H](NC(=O)[C@H](CC(C)C)NC(=O)[C@H](Cc1c[nH]cn1)NC(=O)[C@@H]1CSSC[C@H](N)C(=O)N[C@@H](CO)C(=O)N[C@H]2CSSC[C@H](NC(=O)[C@H](CCC(=O)O)NC(=O)[C@H](CCCCN)NC(=O)[C@H](CC(=O)O)NC(=O)[C@H](C)NC(=O)[C@H](CC(C)C)NC(=O)[C@H](CO)NC(=O)[C@H](CO)NC2=O)C(=O)N[C@@H](C(C)C)C(=O)N[C@@H](Cc2ccc(O)cc2)C(=O)N[C@@H](Cc2ccccc2)C(=O)N1)[C@@H](C)O)C(=O)N[C@@H](Cc1c[nH]c2ccccc12)C(=O)O [Example 16, [Ala^7, Thr^18, Leu^19]-ET-1] (H-CSCSSLADKECVYFCHLTLIW-OH; disulfide 1-15, 3-11)
- Receptor binding activity (specific activity) (endothelin receptor): 62
- pA2 [1]: 7.2
- Maximum constriction (% 60 mM KCl) (porcine coronary artery): 9 % 60 mM KCl
- Constrictor activity (specific activity) (porcine coronary artery): < 0.1
